According to the supplement of paper PMC7455731:

Test: collision cross section (DTIM-MS, N2); higher = larger ion
Method: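 Collision cross section (CCS) of drug and natural-product chemical standards (validation set 2, measured in this paper). Three independent measurements were made across 2 months; the value taken is their mean (avg_ccs), for the ion adduct given.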

| collision cross section (ion adduct: [M+H]+) | collision cross section (ion adduct: [M-H]-) | Compound |
| --- | --- | --- |
| 155.86 Å² |  | Nc1ccn([C@@H]2O[C@H](CO)[C@@H](O)C2(F)F)c(=O)n1 [Gemcitabine] |
|  | 184.6 Å² | COC(=O)C1=CO[C@@H](O[C@@H]2O[C@H](CO)[C@@H](O)[C@H](O)[C@H]2O)[C@@H]2C(CO)=CC[C@H]12 [Geniposide] |
|  | 184.17 Å² | O=C(O)C1=CO[C@@H](O[C@@H]2O[C@H](CO)[C@@H](O)[C@H](O)[C@H]2O)[C@@H]2C(CO)=CC[C@H]12 [Geniposidic acid] |
| 207.07 Å² | 213.76 Å² | O=c1c(-c2ccc(O)cc2)coc2cc(O[C@@H]3O[C@H](CO)[C@@H](O)[C@H](O)[C@H]3O)cc(O)c12 [Genistin] |
| 163.54 Å² | 166.12 Å² | COc1cc(O)c2c(=O)cc(-c3ccc(O)cc3)oc2c1 [Genkwanin] |
| 149.53 Å² |  | CC(C)=C1C/C=C(\C)CC/C=C(\C)CC1=O [Germacrone] |
|  | 177.69 Å² | C=C1C[C@]23C[C@@]1(O)CC[C@H]2[C@@]12C=C[C@H](O)[C@@](C)(C(=O)O1)[C@H]2[C@@H]3C(=O)O [Gibberellic acid] |
|  | 190.92 Å² | CCCCCCCCCCCCCCCc1cccc(O)c1C(=O)O [Ginkgolic<U+00A0>Acid<U+00A0>C15:0<U+00A0>] |
|  | 257.91 Å² | CC(C)=CCC[C@](C)(O[C@@H]1O[C@H](CO)[C@@H](O)[C@H](O)[C@H]1O)[C@H]1CC[C@]2(C)[C@@H]1[C@H](O)C[C@@H]1[C@@]3(C)CC[C@H](O)C(C)(C)[C@@H]3CC[C@]12C [Ginsenoside Compound K] |
|  | 259.18 Å² | CC(C)=CCC[C@](C)(O[C@@H]1O[C@H](CO)[C@@H](O)[C@H](O)[C@H]1O)[C@H]1CC[C@]2(C)[C@@H]1[C@H](O)C[C@@H]1[C@@]3(C)CC[C@H](O)C(C)(C)[C@@H]3[C@@H](O)C[C@]12C [Ginsenoside F1] |
|  | 310.46 Å² | CC1(C)CC[C@]2(C(=O)O[C@@H]3O[C@H](CO)[C@@H](O)[C@H](O)[C@H]3O)CC[C@]3(C)C(=CC[C@@H]4[C@@]5(C)CC[C@H](O[C@@H]6O[C@H](C(=O)O)[C@@H](O)[C@H](O)[C@H]6O[C@@H]6O[C@H](CO)[C@@H](O)[C@H](O)[C@H]6O)C(C)(C)[C@@H]5CC[C@]43C)[C@@H]2C1 [Ginsenoside Ro] |
| 180.63 Å² | 184.46 Å² | CC1(C)C=Cc2c(ccc3c2OC[C@@H](c2ccc(O)cc2O)C3)O1 [Glabridin] |
| 287.67 Å² | 281.13 Å² | CC1(C)[C@@H](O[C@H]2O[C@H](C(=O)O)[C@@H](O)[C@H](O)[C@H]2OC2O[C@H](C(=O)O)[C@@H](O)[C@H](O)[C@H]2O)CC[C@]2(C)[C@H]3C(=O)C=C4[C@@H]5C[C@@](C)(C(=O)O)CC[C@]5(C)CC[C@@]4(C)[C@]3(C)CC[C@@H]12 (stereo partly specified) [Glycyrrhizic acid] |
|  | 127.47 Å² | O=C1CCc2ccccc2O1 [Hydrocoumarin] |
| 181.26 Å² |  | COc1ccc2c(c1)c(CC(=O)O)c(C)n2C(=O)c1ccc(Cl)cc1 [Indometacin] |
|  | 138.02 Å² | CC=Cc1ccc(O)c(OC)c1 [Isoeugenol] |
| 231.51 Å² | 230.78 Å² | COc1ccc(-c2cc(=O)c3c(O)cc(O)c(-c4cc(-c5cc(=O)c6c(O)cc(O)cc6o5)ccc4OC)c3o2)cc1 [Isoginkgetin] |
| 238.39 Å² | 232.33 Å² | COc1ccc(CC2c3cc(Oc4cc(CC5c6cc(O)c(OC)cc6CCN5C)ccc4O)c(OC)cc3CCN2C)cc1 (stereo unspecified) [Isoliensinine] |
| 214.42 Å² |  | COc1cc(C2Oc3ccc(C4Oc5cc(O)cc(O)c5C(=O)C4O)cc3OC2CO)ccc1O (stereo unspecified) [Isosilybin] |
| 180.22 Å² | 180.18 Å² | C[C@@]12CCC3[C@@](CC[C@@H]4[C@](C)(C(=O)O)CCC[C@@]34C)(CC1=O)C2 (stereo partly specified) [Isosteviol] |
| 191.26 Å² | 194.56 Å² | C=CC(C)(C)c1cc(/C=C/C(=O)c2ccc(O)cc2)c(OC)cc1O [Licochalcone A] |
| 170.36 Å² | 171.14 Å² | COc1c(C=CC(=O)c2ccc(O)cc2)ccc(O)c1O [Licochalcone B] |
| 162 Å² | 161.75 Å² | O=C1C[C@@H](c2ccc(O)cc2)Oc2cc(O)ccc21 [Liquiritigenin] |
| 209.01 Å² | 210.14 Å² | O=c1cc(-c2ccc(O)c(O)c2)oc2cc(O[C@@H]3O[C@H](CO)[C@@H](O)[C@H](O)[C@H]3O)cc(O)c12 [Luteolin-7-O-glucoside] |

| collision cross section (ion adduct: [M+H]+) | collision cross section (ion adduct: [M-H]-) | Compound |
| --- | --- | --- |
|  | 169.57 Å² | OC[C@@H](O)[C@@H](O[C@H]1O[C@H](CO)[C@@H](O)[C@H](O)[C@H]1O)[C@H](O)[C@@H](O)CO [Maltitol] |
| 154.75 Å² |  | Cc1cccc(Nc2ccccc2C(=O)O)c1C [Mefenamic acid] |
| 141.05 Å² | 139.8 Å² | CNC[C@H](O)[C@@H](O)[C@H](O)[C@H](O)CO [Meglumine] |
|  | 139.5 Å² | COC(=O)/C=C/c1ccc(O)cc1 [Methyl 4-hydroxycinnamate] |
|  | 146.35 Å² | COC(=O)c1cc(OC)c(O)c(OC)c1 [Methyl syringate] |
|  | 155.14 Å² | NC(=O)c1ncn([C@@H]2O[C@H](CO)[C@@H](O)[C@H]2O)c1O [Mizoribine] |
|  | 199.23 Å² | C[C@@H]1O[C@@H](Oc2c(-c3cc(O)c(O)c(O)c3)oc3cc(O)cc(O)c3c2=O)[C@H](O)[C@H](O)[C@H]1O [Myricitrin] |
| 181.28 Å² | 176.36 Å² | COc1cc(C=CC(=O)NCCc2ccc(O)cc2)ccc1O [N-trans-Feruloyltyramine] |
| 242.9 Å² | 252.96 Å² | COc1ccc(CC2c3cc(Oc4cc(CC5c6cc(OC)c(OC)cc6CCN5C)ccc4O)c(OC)cc3CCN2C)cc1 (stereo unspecified) [Neferine] |
|  | 229.5 Å² | COc1ccc([C@@H]2CC(=O)c3c(O)cc(O[C@@H]4O[C@H](CO)[C@@H](O)[C@H](O)[C@H]4O[C@@H]4O[C@@H](C)[C@H](O)[C@@H](O)[C@H]4O)cc3O2)cc1O [Neohesperidin] |
| 233.96 Å² |  | COc1ccc(CCC(=O)c2c(O)cc(O[C@@H]3O[C@H](CO)[C@@H](O)[C@H](O)[C@H]3O[C@@H]3O[C@@H](C)[C@H](O)[C@@H](O)[C@H]3O)cc2O)cc1O [Neosperidin dihydrochalcone] |
| 125.25 Å² |  | NC(=O)c1cccnc1 [Nicotinamide] |
| 217.15 Å² | 219.9 Å² | CC(=O)OC5CC(=O)O[C@@](C)(C)[C@@H]6CC(=O)[C@]3(C)[C@H](CC[C@@]2(C)[C@@H](OC(=O)[C@H]1O[C@]123)c4ccoc4)[C@@]56C (stereo partly specified) [Nomilin] |
| 158.75 Å² | 160.85 Å² | COc1c(O)c(C)cc2c1C(=O)c1c(O)cccc1C2=O [Obtusifolin] |
|  | 217.92 Å² | C/C=C1/[C@H](O[C@@H]2O[C@H](CO)[C@@H](O)[C@H](O)[C@H]2O)OC=C(C(=O)OC)[C@H]1CC(=O)OCCc1ccc(O)c(O)c1 [Oleuropein] |
| 151.37 Å² | 150.88 Å² | O=C(Nc1ccc(O)cc1)c1ccccc1O [Osalmid] |
| 218.82 Å² |  | CC1(C)CCC[C@](C)([C@H]2CC[C@]3(C)[C@@H]2[C@H](O)C[C@@H]2[C@@]4(C)CC[C@H](O)C(C)(C)[C@@H]4CC[C@]23C)O1 [Panaxadiol] |
| 154.23 Å² |  | C=C1C(=O)O[C@H]2[C@H]1CC/C(C)=C\CC[C@@]1(C)O[C@@H]21 [Parthenolide] |
| 138.73 Å² |  | C=C(C)C1CC=C(C=NO)CC1 (stereo unspecified) [Perillartine] |
|  | 193.11 Å² | O=C(CCc1ccc(O)cc1)c1c(O)cc(O)cc1O[C@@H]1O[C@H](CO)[C@@H](O)[C@H](O)[C@H]1O [Phlorizin] |
| 261.06 Å² | 262.32 Å² | C[C@@H]1C/C=C/C=C/C=C/C=C/[C@H](O[C@@H]2O[C@H](C)[C@@H](O)[C@H](N)[C@@H]2O)C[C@@H]2O[C@](O)(C[C@@H](O)C[C@H]3O[C@@H]3/C=C/C(=O)O1)C[C@H](O)[C@H]2C(=O)O [Pimaricin] |
| 157.96 Å² | 159.74 Å² | O=C1C[C@@H](c2ccccc2)Oc2cc(O)cc(O)c21 [Pinocembrin] |
| 177.2 Å² |  | O=C(/C=C/C=C/c1ccc2c(c1)OCO2)N1CCCCC1 [Piperine] |
| 179.46 Å² |  | COc1cc(/C=C/C(=O)N2CCC=CC2=O)cc(OC)c1OC [Piperlongumine] |

| Compound | collision cross section (ion adduct: [M+H]+) | collision cross section (ion adduct: [M-H]-) |
| --- | --- | --- |
| CC(C)=CCC[C@](C)(O)[C@H]1CC[C@]2(C)[C@@H]1[C@H](O)C[C@@H]1[C@@]3(C)CC[C@H](O)C(C)(C)[C@@H]3[C@@H](O[C@@H]3O[C@H](CO)[C@@H](O)[C@H](O)[C@H]3O)C[C@]12C [Ginsenoside Rh1] |  | 266.62 Å² |
| CC1=CC23C(=O)C(C=C(CO)C(O)C2(O)C1O)C1C(CC3C)C1(C)C (stereo unspecified) [Ingenol] |  | 184.41 Å² |
| CC(C)NC(=O)N1CC(=O)N(c2cc(Cl)cc(Cl)c2)C1=O [Iprodione] | 180.27 Å² |  |
| COC1=CC(=O)O[C@@H](/C=C/c2ccccc2)C1 [Kawain] | 150.52 Å² |  |
| CC1CCC=C2C(=O)CC3OOC(C)(C)C3C21C (stereo unspecified) [Nardosinone] |  | 156.3 Å² |
| COc1cc2c3c(c1OC)-c1ccccc1C[C@H]3N(C)CC2 [Nuciferine] | 172.41 Å² |  |
| c1ccc2c(c1)Nc1ccccc1S2 [Phenothiazine] |  | 140.54 Å² |
| COc1cc(O)cc(/C=C/c2ccc(O)cc2)c1 [Pinostilbene] | 160.07 Å² | 166.26 Å² |
